The source made the active and inactive calls. Rule as the data show it, for most assays here: actives have a measured EC50 and inactives only a lower limit.
Tests used:
[1] = Luminescence Cell-Based Dose Confirmation HTS to Identify Inhibitors of Platelet Dense Granule Release. [Related pubchem assays: 1663 (Primary HTS), 1678 (Summary of Project)]; format: functional
[2] = biological target: Luciferin 4-monooxygenase (Photinus pyralis, UniProt P08659); experiment: firefly luciferase enzyme inhibitors, dose response, biochemical, luminescence (AID 1891)
[3] = C. albicans growth with fluconazole, confirmation, fluorescence, retest (AID 2467); format: functional, cell-based
[4] = Luminescence Cell-Based Dose Retest to Confirm Inhibitors of Cancer Stem Cells. [Related pubchem assays (depositor defined):AID2717, AID2721]; format: functional; conditions: Homo sapiens
[5] = NIH-3T3 fibroblast cytotoxicity, dose response, cytotoxicity control, cell-based, fluorescence, Alamar Blue, secondary assay (AID 2327); format: functional;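 also: NIH-3T3 mouse fibroblasts cultured with fluconazole at 8 µg/mL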
Cytochrome P450 1A2 = biological target: T1, Cytochrome P450 1A2 (Homo sapiens, UniProt P05177);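 also: PubChem cytochrome P450 panel assay, CYP1A2 panel member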
T1 sequence (P05177 whole entry): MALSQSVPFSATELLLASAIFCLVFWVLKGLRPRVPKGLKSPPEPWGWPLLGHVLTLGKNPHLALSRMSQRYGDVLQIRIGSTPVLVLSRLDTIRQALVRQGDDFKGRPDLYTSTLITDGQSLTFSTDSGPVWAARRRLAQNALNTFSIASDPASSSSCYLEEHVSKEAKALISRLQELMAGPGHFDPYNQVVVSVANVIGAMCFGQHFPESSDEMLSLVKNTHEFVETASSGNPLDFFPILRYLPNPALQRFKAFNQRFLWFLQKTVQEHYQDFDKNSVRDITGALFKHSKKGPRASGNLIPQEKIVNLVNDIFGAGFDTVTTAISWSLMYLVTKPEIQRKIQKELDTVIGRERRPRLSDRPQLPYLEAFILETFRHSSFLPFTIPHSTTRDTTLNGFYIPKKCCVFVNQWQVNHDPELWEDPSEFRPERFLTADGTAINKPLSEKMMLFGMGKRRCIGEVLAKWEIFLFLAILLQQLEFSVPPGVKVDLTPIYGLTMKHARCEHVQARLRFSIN

Cytochrome P450 2D6 = Cytochrome P450 2D6 (Homo sapiens, UniProt P10635);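 also: CYP2D6 member of a cytochrome P450 panel assay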
[6] = biological target: T2, Corticotropin-releasing factor receptor 2/Corticotropin-releasing factor-binding protein (Homo sapiens, UniProt P24387+Q13324); experiment: activators of CRF receptor 2 with binding protein – uHTS hits, confirmation (AID 602473); format: functional; conditions: read-out: EC50_Mean
T2 sequence (Q13324 whole entry): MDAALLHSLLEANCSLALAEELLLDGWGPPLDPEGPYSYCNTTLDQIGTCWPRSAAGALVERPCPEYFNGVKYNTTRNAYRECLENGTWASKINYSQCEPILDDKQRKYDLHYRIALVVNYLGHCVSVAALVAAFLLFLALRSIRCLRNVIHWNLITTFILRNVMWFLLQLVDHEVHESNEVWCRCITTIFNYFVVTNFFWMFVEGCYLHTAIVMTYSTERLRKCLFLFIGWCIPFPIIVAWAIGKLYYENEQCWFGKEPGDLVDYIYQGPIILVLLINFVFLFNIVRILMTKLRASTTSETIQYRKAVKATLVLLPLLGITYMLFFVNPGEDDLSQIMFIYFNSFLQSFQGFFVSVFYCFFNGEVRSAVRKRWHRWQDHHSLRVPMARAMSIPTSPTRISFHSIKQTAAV
T2 sequence (P24387 whole entry): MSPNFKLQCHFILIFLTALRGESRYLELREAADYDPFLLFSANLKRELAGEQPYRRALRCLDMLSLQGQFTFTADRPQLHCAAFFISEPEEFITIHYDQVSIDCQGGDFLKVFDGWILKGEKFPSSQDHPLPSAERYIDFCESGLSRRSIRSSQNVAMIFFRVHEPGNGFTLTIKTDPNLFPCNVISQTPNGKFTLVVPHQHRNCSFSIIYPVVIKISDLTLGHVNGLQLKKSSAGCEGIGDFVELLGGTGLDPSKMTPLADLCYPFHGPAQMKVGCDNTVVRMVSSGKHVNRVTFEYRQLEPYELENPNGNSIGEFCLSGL

[7] = biological target: T2, Corticotropin-releasing factor receptor 2/Corticotropin-releasing factor-binding protein; experiment: Dose Response confirmation of uHTS hits for small molecule antagonists of the CRF-binding protein and CRF-R2 receptor complex.; format: functional; conditions: read-out: IC50_Mean

Chain of Luciferin 4-monooxygenase (P08659 whole entry): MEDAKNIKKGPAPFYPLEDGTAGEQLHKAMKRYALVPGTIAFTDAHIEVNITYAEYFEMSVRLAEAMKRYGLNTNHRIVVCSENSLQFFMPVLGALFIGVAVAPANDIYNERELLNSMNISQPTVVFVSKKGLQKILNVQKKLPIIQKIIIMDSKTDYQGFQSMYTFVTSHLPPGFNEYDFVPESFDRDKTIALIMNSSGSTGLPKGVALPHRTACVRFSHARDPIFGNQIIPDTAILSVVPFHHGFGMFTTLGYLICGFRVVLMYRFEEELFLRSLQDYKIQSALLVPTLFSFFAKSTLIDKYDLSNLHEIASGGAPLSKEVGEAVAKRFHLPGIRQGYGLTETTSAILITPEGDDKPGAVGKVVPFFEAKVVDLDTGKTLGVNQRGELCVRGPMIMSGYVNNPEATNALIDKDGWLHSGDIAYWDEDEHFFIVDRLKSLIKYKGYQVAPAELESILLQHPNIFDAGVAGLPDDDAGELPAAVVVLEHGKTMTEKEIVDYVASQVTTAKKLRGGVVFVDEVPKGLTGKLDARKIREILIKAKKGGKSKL
Chain of Cytochrome P450 2D6 (P10635 whole entry): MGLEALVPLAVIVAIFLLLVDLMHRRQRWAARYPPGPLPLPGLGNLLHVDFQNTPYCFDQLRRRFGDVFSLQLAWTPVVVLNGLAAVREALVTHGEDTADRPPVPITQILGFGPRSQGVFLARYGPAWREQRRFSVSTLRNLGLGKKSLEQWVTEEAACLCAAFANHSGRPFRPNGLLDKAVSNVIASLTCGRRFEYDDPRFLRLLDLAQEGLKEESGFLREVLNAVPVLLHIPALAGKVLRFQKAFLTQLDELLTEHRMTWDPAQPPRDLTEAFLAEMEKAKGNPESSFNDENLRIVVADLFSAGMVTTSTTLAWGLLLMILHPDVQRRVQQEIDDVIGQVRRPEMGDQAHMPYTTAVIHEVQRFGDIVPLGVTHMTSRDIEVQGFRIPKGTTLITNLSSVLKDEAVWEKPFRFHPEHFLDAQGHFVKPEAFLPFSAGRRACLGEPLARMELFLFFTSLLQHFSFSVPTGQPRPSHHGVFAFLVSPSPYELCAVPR

CSc1ccccc1C(=O)Nc1ncc(C)s1
EC50 [1]: 65.8 µM (active) | EC50 [2]: > 112 µM (not active)

O=C(NNc1ccc(Cl)cc1)c1cccs1
EC50 [3]: > 38 µM (not active) | AC50 [4]: 1.14 µM (active) | EC50 [5]: 2.56 µM (inconclusive)

CCOC(=O)C1CCN(C(=O)Cn2nc(C)n3c(cc4cc(F)ccc43)c2=O)CC1
EC50 [1]: 15.8 µM (active) | EC50 [2]: > 112 µM (not active)

O=C(CC1(O)C(=O)Nc2ccccc21)c1ccccc1 (stereo not drawn)
EC50 [1]: > 112 µM (not active) | EC50 [2]: > 112 µM (not active)

O=Nc1c(O)n(Cc2ccc(Cl)c(Cl)c2)c2ccccc12
EC50 [3]: 3.73 µM (active) | AC50 (Cytochrome P450 1A2): 20 µM (inconclusive) | AC50 [4]: 5.78 µM (active) | AC50 (Cytochrome P450 2D6): 28.2 µM (inconclusive) | EC50 [5]: 76.8 µM (active)

O=C(c1ccco1)N1CCN(C(=O)c2ccc(COc3ccc(F)cc3)o2)CC1
EC50 [1]: > 112 µM (not active) | EC50 [2]: > 112 µM (not active)

COc1ccccc1NC(=O)Cc1c(F)cccc1Cl
EC50 [1]: 70.8 µM (active) | EC50 [2]: > 112 µM (not active)

CCCn1cc(S(=O)(=O)c2ccccc2)c(=O)c2cc(OCC)ccc21
EC50 [6]: > 53 µM (inactive) | IC50 [7]: > 47.1 µM (inactive)

O=C(CSc1nc[nH]n1)Nc1cc(S(=O)(=O)N2CCCC2)ccc1Cl
EC50 [6]: > 53 µM (inactive) | IC50 [7]: > 47.1 µM (inactive)

COc1cccc(CN(C)C(=O)c2cccc(S(=O)(=O)N3CCN(c4ccccc4)CC3)c2)c1OC
EC50 [6]: > 53 µM (inactive) | IC50 [7]: > 47.1 µM (inactive)

Cc1ccc(CNC(=O)C2CCCN(c3nn4c(=O)cc(C)nc4s3)C2)cc1 (stereo not drawn)
EC50 [1]: > 112 µM (not active) | EC50 [2]: > 112 µM (not active)

Clc1nc2ncnc-2c[nH]1
EC50 [1]: > 112 µM (not active) | EC50 [2]: > 112 µM (not active)

O=C(Nc1cccc(O)c1)C(=O)Nc1ccccn1
EC50 [1]: 1.82 µM (active) | EC50 [2]: 7.77 µM (active)

COc1ccc(-c2cc(C)no2)cc1S(=O)(=O)N(C)c1cccc(C)c1
EC50 [3]: > 38 µM (not active) | EC50 [5]: > 160 µM (inactive)

COc1cccc(-c2nc3ccc(O)cc3c(=O)o2)c1
EC50 [1]: 9.19 µM (active) | EC50 [2]: 5.39 µM (active)

COc1ccc(Br)cc1/C=N/n1c(C)nnc1C
EC50 [1]: > 112 µM (not active) | EC50 [2]: > 112 µM (not active)

O=C(CN1CCN(c2ccccc2F)CC1)Nc1nnc(C(F)(F)F)s1
EC50 [3]: 0.366 µM (active) | EC50 [5]: > 150 µM (inactive)

COc1cccc(NC(=S)C(C#N)=C2N(C)c3ccccc3N2C)c1
EC50 [6]: > 53 µM (inactive) | IC50 [7]: > 47.1 µM (inactive)

CC(c1ccccc1)N1CCn2c(nc3cc(NS(C)(=O)=O)ccc32)C1 (stereo not drawn)
EC50 [3]: > 38 µM (not active) | EC50 [5]: > 160 µM (inconclusive)

CCn1c(SCC(=O)NC2CC2)nnc1-c1ccncc1
EC50 [6]: > 53 µM (inactive) | IC50 [7]: > 47.1 µM (inactive)

COC(=O)COc1ccc(S(=O)(=O)NCc2cccnc2)cc1C
EC50 [1]: 34.3 µM (active) | EC50 [2]: > 112 µM (not active)

O=C(CCn1nnc2ccccc21)N1CCN(c2ccccc2)CC1
EC50 [6]: > 53 µM (inactive) | IC50 [7]: > 47.1 µM (inactive)
